Laboratory results taken from US6004905A, “Hyperabas: biologically active abscisic acid analogs with unsaturated carbon substituents at the 8'-methyl or 9'-methyl carbon atoms” (National Research Council of Canada, priority 1998, dated 1999).
“Also recorded” adds a separate entry of the source. Where two headings read alike, the source gives them in different places.

Assays:
wheat seedlings = test: Transpiration in wheat seedlings; format: in vivo, Triticum aestivum L. cv Katepwa; conditions: for reduction in transpiration: (+)-forms of methyl esters, 100 μM, 3 hours (FIG. 8); for reduction of transpiration (summary in words): in vivo; for EC50: Triticum aestivum, 3 h, intact wheat seedlings, three hours after application, read-out: concentration to reduce the transpiration rate to 50% (TR50)
From the text: ABA is a key signal molecule involved in regulating transpiration in plants (W. J. Davies T. A. Mansfield 1988 Abscisic acid and drought resistance in plants ISI Atlas of Science: Animal and Plant Sciences 0894-3761 p. 263-269). […] This difference in activity is shown in FIG. 4 in which the % transpiration effected by the (+)-forms of methyl esters of ABA (214) , 8'-methyl (370) and 8'-methylene ABA (357) are compared. The structures are as follows: [drawing 13] Seed Germination
The transpiration rate of 6 to 10 day old wheat seedlings (Triticum aestivum L. cv Katepwa) was measured as previously described (Rose et al.^7, 1996 incorporated herein by reference). Antitranspirant activity of the analogs (prepared as a 1% ethanol solution in water) was measured over a range of concentrations to determine the concentration where the transpiration rate of the wheat seedling is reduced by 50%. The transpiration rate (μMol H2 O/cm^2 s) was calculated and then given as a percentage of the initial transpiration rate of the plant (typically 0.28-0.35 μMol H2 O/cm^2 s), corrected for the effect of the control (1% ethanol).
ABA is a key signal molecule involved in regulating transpiration in plants. We had previously determined that esters were as active as acids in this assay (data not shown) so the effect of the methyl esters of natural ABA (+)-^8 '-methylene ABA and 8'-methyl ABA on transpiration in intact wheat seedlings was compared three hours after application. […] The difference in responses may be due to reduced uptake of the 8'-methyl ABA in the intact wheat seedling.

[1] = system: suspension-cultured corn cells (var. Black Mexican Sweet); test: Growth inhibition of suspension-cultured corn cells; format: cell-based, corn (maize); conditions: for growth inhibition activity (comparison in words): four days; for inhibition at 0.33 µM / IC50: Zea mays, 96 h; for inhibition at 0.33 µM: four day period, read-out: growth inhibition relative to the control; for IC50: four days after addition, read-out: concentration required for 50% inhibition of growth
[2] = system: Black Mexican Sweet maize cells; test: Metabolites from maize suspension cells; format: in vitro ADME; conditions: 100 μM, 90 h
Experimental: Eighteen g of Black Mexican Sweet maize cells were subcultured into a 1L flask containing 500 ml sterile medium as described previously (Balsevich et al.^6, 1994). […] At the end of the culture period, the cells were removed by filtration. The filtrate was frozen until processed for isolation.
The metabolites were extracted from the culture filtrate by a chromatographic procedure using Supelco Amberlite XAD-2 resin (Balsevich et al. 6, 1994). The crude product isolated from the resin was partially purified by preparative TLC (silica gel 60 GF254, 20 cm×20 cm×1 mm, toluene-EtOAc-HOAc 25:15:2 as eluent), giving two isomeric acids, The acids were separately reacted with diazomethane, and then further purified by HPLC as their methyl esters yielding approx. 0.5 mg of each metabolite.

excised wheat embryos [3] = test: Wheat embryo germination inhibition; format: in vivo, Triticum aestivum L. cv. Clark's Cream; conditions: for concentration giving equivalent germination inhibition: (+)-8'-methylene ABA versus (+)-ABA (FIG. 12)
Experimental: Grains of soft white wheat (Triticum aestivum L. cv. Clark's Cream) were used. For bioassay, embryos with some adhering endosperm and pericarp attached were cut from the grains with a razor blade. Analogs were prepared by dissolving into a minimal amount of DMSO to prepare a 0.1 M solution, and then diluted with […], pH 5.8, to 0.01, 0.1, 1, 10 and 100 μM. For each analog concentration six replicate germination assays were conducted on 10 embryos each at 30° C. Embryos were incubated in Petri dishes (100×15 mm) containing 6 ml solution.

[4] = system: ABA-responsive cor6.6 promoter; test: ABA-inducible gene expression (GUS activity) in transgenic tobacco seedlings containing Pcor6.6-GUS; format: in vivo, transgenic tobacco (promoter from Arabidopsis thaliana); conditions: 24 hours; for induction of GUS activity: 200 micromolar, relative to untreated control
From the text: The results shown are an average of duplicate assays on samples containing 34 seedlings.
The results shown are an average of duplicate samples containing cotyledons from 34 seedlings.

[5] = ABA-like (hormonal) activity in various assays; parameters: species or system plants; conditions: wheat and cress
corn cells = test: Depletion (persistence) from corn cell culture media; format: in vitro ADME, corn (maize)
Experimental: Ethanolic stock solutions of (+)-ABA, (+)-8'-methylene ABA and (+)-8'-methyl ABA were added to flasks containing 0.2 g of corn cells and 10 ml of culture medium to obtain a final concentration of 100 μM of hormone or analog. Aliquots of medium (100 μl) were removed at intervals and analyzed for ABA or ABA analog content by HPLC as described previously (Balsevich et al.^6, 1994). Each compound was inoculated into 3 flasks and duplicate samples were removed at the indicated time points. The corn cells were used 1 or 2 days after subculturing.

[6] = system: suspension-cultured corn cells; test: Medium pH changes in corn cell suspension cultures; format: cell-based, corn (maize); conditions: 10 μM solution
Experimental: Cell growth was measured by the change in fresh weight over a 4-day period, as previously described (Balsevich et al.^6, 1994). The medium pH changes associated with addition of (+)-ABA and (+)-8'-methylene ABA were also measured as described by Balsevich et al.^6, (1994).

cress seed = test: Cress seed germination inhibition; format: in vivo; conditions: for germination of cress seed: 5 μM (printed 5 M)
Experimental: The experimental conditions were as follows: 100 seeds are placed on a 9 cm Whatman no. 1 filter paper in a petri dish and treated with 5 ml of solution.
The final concentration of the ethanol in the assay solutions was <0.05%. Assays were conducted with 100 seeds in each Petri dish and performed in triplicate. The germination measurements were based on the growth of the primary root. A seed was considered germinated when the radical was approximately the same length as the seed.

excised wheat embryos [7] = conditions: Walker-Simmons et al., 1992, cited from earlier work
[8] = system: suspension-cultured corn cells; conditions: Balsevich et al 1994, cited from earlier work
[9] = system: suspension-cultured corn cells (var. Black Mexican Sweet); conditions: Balsevich et al 1994, cited from earlier work

SMILES: C=CC1(C)CC(=O)C=C(C)C1(O)/C=C/C(C)=C\C(=O)OC (single isomer, unassigned; (+)) [(+)-9'-ethylene methyl ABA]
- reduction in transpiration (wheat seedlings): Equivalent high activity

SMILES: C#CC1(C)CC(=O)C=C(C)C1(O)C=CC(C)=CC(=O)O (stereo not shown) [8'-acetylene ABA]
- growth inhibition activity (comparison in words) [1]: more potent than ABA

SMILES: C=C[C@@]1(C)CC(=O)C=C(C)[C@]1(O)/C=C/C(C)=C\C(=O)O [(+)-8'-methylene ABA, (+) 8'-methyleneabscisic acid]
- metabolites identified [2]: two isomeric epoxides
- reduction of transpiration (summary in words) (wheat seedlings): more effective than ABA
- concentration giving equivalent germination inhibition (excised wheat embryos [3]): 1.0 µM
- times more effective than natural ABA, germination inhibition of excised wheat embryos (excised wheat embryos [3]; embryos from dormant wheat grains (FIG. 12)): at least 10 times
- germination inhibitory activity, wheat embryos (in words) (excised wheat embryos [3]; in vivo): more active than (+)-ABA; also recorded: most potent compound over all concentrations and time points; also recorded: more effective than ABA
- induction of ABA-responsive gene expression (in words) ([4]; 100 μM): slightly weaker inducer than ABA; also recorded: highly effective in inducing ABA-responsive gene expression
- induction of GUS activity [4]: strongly induced GUS activity
- germination inhibition in seeds of both a monocot and a dicot [5]: more effective germination inhibitor in seeds of both a monocot and a dicot
- time by which 50% had disappeared from the medium (corn cells; corn, corn cell culture medium, 100 µM): ~100 h
- inhibition at 0.33 µM [1]: 64%
- IC50 [1]: < 0.33 µM
- growth inhibition activity (comparison in words) [1]: stronger growth inhibition activity than (+)-ABA at all tested concentrations; also recorded: more effective than ABA
- growth inhibition activity (comparison in words) ([1]; listed as 8'-methylene ABA): the strongest growth inhibition produced by any ABA analog so far
- growth inhibition activity (comparison in words) ([1]; listed as (+)-methylene ABA): significantly stronger than either (+)-ABA or (+)-8'-methyl ABA
- shift in pH of the medium [6]: causes a comparable shift in pH as that produced by ABA
- shift in pH of the medium ([6]; listed as (+)- 8'-methylene ABA): causes as great a shift in pH as ABA
- germination inhibition of cress seed (cress seed; 1 μM): more potent than ABA
- germination of cress seed (cress seed): does not germinate
- germination of cress seed (cress seed; listed as 8'-Methylene analog): remain dormant
- germination inhibition of cress seed (summary in words) (cress seed; in vivo): more effective than ABA

SMILES: CC1=CC(=O)CC(C)(C)[C@@]1(O)/C=C/C(C)=C\C(=O)O [(+)-ABA, abscisic acid]
- concentration giving equivalent germination inhibition (excised wheat embryos [3]): 10 µM
- germination inhibitory activity, wheat embryos (literature) (excised wheat embryos [7]): equally effective in inhibiting germination
- germination inhibitory activity, wheat embryos (literature) (excised wheat embryos [7]; listed as ABA): both enantiomers of ABA were equally effective
- induction of GUS activity [4]: strongly induced GUS activity
- time by which 50% had disappeared from the medium (corn cells; initial 100 μM, corn cell culture (FIG. 10)): ≤ 24 h
- inhibition at 0.33 µM [1]: 17%
- IC50 [1]: ~10 µM
- shift (elevation) in pH of the medium (literature) ([8]; listed as Natural ABA): causes a transient elevation of pH of the corn cell culture medium; also recorded: causes a shift in the pH of the medium of cultured corn cells
- time of maximum of transient elevation of medium pH ([8]; after ABA addition): about 6 h
- growth inhibition (literature) [9]: inhibits growth of maize suspension-cultured cells over a four day period
- growth inhibition (literature) ([9]; listed as Natural ABA): causes growth inhibition
- germination of cress seed (cress seed): begins to germinate

SMILES: CC1=CC(=O)CC(C)(C)[C@]1(O)/C=C/C(C)=C\C(=O)O [(-)-ABA]
- germination inhibitory activity, wheat embryos (literature) (excised wheat embryos [7]): equally effective in inhibiting germination
- shift (elevation) in pH of the medium (literature) [8]: only weakly

SMILES: COC(=O)/C=C(C)\C=C\[C@@]1(O)C(C)=CC(=O)CC1(C)C [compound 214]
- reduction in transpiration (wheat seedlings): Equivalent high activity
- EC50 (wheat seedlings; methyl ester, unit M): 25 to 50 µM

SMILES: C=C[C@@]1(C)CC(=O)C=C(C)[C@]1(O)/C=C/C(C)=C\C(=O)OC [compound 357, (+) Methyl 8'-methyleneabscisate]
- EC50 (wheat seedlings; methyl esters): 5 to 10 µM
- reduction of transpiration (summary in words) (wheat seedlings): most active analog

SMILES: CC[C@@]1(C)CC(=O)C=C(C)[C@]1(O)/C=C/C(C)=C\C(=O)OC [compound 370]
- EC50 (wheat seedlings; methyl esters): 100 µM
- reduction of transpiration (summary in words) (wheat seedlings): relatively weak in this assay
- % transpiration effect (comparison in words) (wheat seedlings; methyl esters, (+)-forms, 10 μM, 3 hours (FIG. 4)): not as active as the vinyl analog
